We go through 35 compounds from patent US20070010671A1, “Novel quinazoline derivatives and methods of treatment related to the use thereof” (priority 2003, published 2007).

Structures are written as SMILES.

In the first experiment the target is MCH receptor (Homo sapiens, UniProt Q99705). Put plainly: High throughput functional screening FLIPR/FDSS6000: inhibition of MCH-evoked intracellular Ca2+ changes. The class given is cell-based. As to conditions: class by percent of control at 10^-7 M or IC50. An outline of the steps: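 Antagonism is measured as inhibition of the intracellular calcium rise triggered by 50 nM MCH in cells bearing a constitutively active, non-endogenous form of the receptor. Cells are dye-loaded with Fluo4-AM and exposed to compound for 3 min at 37° C before agonist addition.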
For `CN(C)c1nc(N[C@H]2CC[C@@H](CNC(=S)NCCCc3ccccc3)CC2)nc2ccccc12` [compound 689], the class is on record as 3 (Class 3: The value of percent of control at 10^−7 M was more than 60% or the value of IC50 was more than 200 nM.).
Same read-out and setting: the figure for `CN(C)c1nc(N[C@H]2CC[C@@H](CNC(=O)Nc3ccc4ccccc4c3)CC2)nc2ccccc12` [compound 511] is 3 (Class 3: The value of percent of control at 10^−7 M was more than 60% or the value of IC50 was more than 200 nM.); for `COC(=O)c1ccc(NC(=S)NC[C@H]2CC[C@@H](Nc3nc(N(C)C)c4ccccc4n3)CC2)cc1` [compound 702] it is 3 (Class 3: The value of percent of control at 10^−7 M was more than 60% or the value of IC50 was more than 200 nM.).
On the same count and under the same terms, the figure for `CN(C)c1nc(N[C@H]2CC[C@@H](NC(=S)Nc3ccccc3C#N)CC2)nc2ccccc12` [compound 299] is 3 (Class 3: The value of percent of control at 10^−7 M was more than 60% or the value of IC50 was more than 200 nM.); for `CN(C)c1nc(N[C@H]2CC[C@@H](NC(=S)Nc3ccc(Oc4ccccc4)nc3)CC2)nc2ccccc12` [compound 404] it is 3 (Class 3: The value of percent of control at 10^−7 M was more than 60% or the value of IC50 was more than 200 nM.); for `CN(C)c1nc(N[C@H]2CC[C@@H](NC(=S)NC(c3ccccc3)c3ccccc3)CC2)nc2ccccc12` [compound 284, N-(cis-4-{[4-(dimethylamino)quinazolin-2-yl]amino}cyclohexyl)-N′-(diphenylmethyl)thiourea] it is 2 (Class 2: The value of percent of control at 10^−7 M was from 40% to 60% or the value of IC50 was from 50 nM to 200 nM.).
Same read-out and setting: the figure for `COc1ccc(NC(=S)NC[C@H]2CC[C@@H](Nc3nc(N(C)C)c4ccccc4n3)CC2)c([N+](=O)[O-])c1` [compound 700] is 3 (Class 3: The value of percent of control at 10^−7 M was more than 60% or the value of IC50 was more than 200 nM.).
Consider `CN(C)c1nc(N[C@H]2CC[C@@H](CNC(=O)Nc3ccccc3F)CC2)nc2ccccc12` [compound 439, N-[(cis-4-{[4-(dimethylamino)quinazolin-2-yl]amino}cyclohexyl)methyl]-N′-(2-fluorophenyl)urea], for which the class was 2 (Class 2: The value of percent of control at 10^−7 M was from 40% to 60% or the value of IC50 was from 50 nM to 200 nM.).
As to `CN(C)c1nc(N[C@H]2CC[C@@H](CNC(=O)Nc3ccc(F)c(F)c3)CC2)nc2ccccc12` [compound 522, N-(3,4-difluorophenyl)-N′-[(cis-4-{[4-(dimethylamino)quinazolin-2-yl]amino}cyclohexyl)methyl]urea], the class was 1 (Class 1: The value of percent of control at 10^−7 M was less than 40% or the value of IC50 was less than 50 nM.).
The same measure, in the same setting: in the case of `CN(C)c1nc(N[C@H]2CC[C@@H](CNC(=S)Nc3ccc4c(c3)OCO4)CC2)nc2ccccc12` [compound 791] it was 3 (Class 3: The value of percent of control at 10^−7 M was more than 60% or the value of IC50 was more than 200 nM.); in that of `CN(C)c1nc(N[C@H]2CC[C@@H](CNC(=S)Nc3cc(Br)ccc3Br)CC2)nc2ccccc12` [compound 719], 3 (Class 3: The value of percent of control at 10^−7 M was more than 60% or the value of IC50 was more than 200 nM.).
On the same count and under the same terms, in the case of `CN(C)c1nc(N[C@H]2CC[C@@H](CNC(=O)NCc3ccc(Br)cc3)CC2)nc2ccccc12` [compound 544] it was 3 (Class 3: The value of percent of control at 10^−7 M was more than 60% or the value of IC50 was more than 200 nM.); in that of `CCCNC(=S)NC[C@H]1CC[C@@H](Nc2nc(N(C)C)c3ccccc3n2)CC1` [compound 617], 3 (Class 3: The value of percent of control at 10^−7 M was more than 60% or the value of IC50 was more than 200 nM.); in that of `Cc1cc(Cl)ccc1NC(=S)N[C@H]1CC[C@@H](Nc2nc(N(C)C)c3ccccc3n2)CC1` [compound 269], 1 (Class 1: The value of percent of control at 10^−7 M was less than 40% or the value of IC50 was less than 50 nM.).
Still for that read-out and setting: the figure for `CN(C)c1nc(N[C@H]2CC[C@@H](CNC(=S)NCc3ccccc3)CC2)nc2ccccc12` [compound 580] is 3 (Class 3: The value of percent of control at 10^−7 M was more than 60% or the value of IC50 was more than 200 nM.); for `CN(C)c1nc(N[C@H]2CC[C@@H](CNC(=O)Nc3ccc4c(c3)OCCCO4)CC2)nc2ccccc12` [compound 763] it is 3 (Class 3: The value of percent of control at 10^−7 M was more than 60% or the value of IC50 was more than 200 nM.); for `CN(C)c1nc(N[C@H]2CC[C@@H](CNC(=O)Nc3ccccc3OC(F)F)CC2)nc2ccccc12` [compound 469, N-[2-(difluoromethoxy)phenyl]-N′-[(cis-4-{[4-(dimethylamino)quinazolin-2-yl]amino}cyclohexyl)methyl]urea] it is 2 (Class 2: The value of percent of control at 10^−7 M was from 40% to 60% or the value of IC50 was from 50 nM to 200 nM.).
With `CN(C)c1nc(N[C@H]2CC[C@@H](CNC(=S)Nc3ccc(Br)cc3C(F)(F)F)CC2)nc2ccccc12` [compound 693, N-[4-bromo-2-(trifluoromethyl)phenyl]-N′-[(cis-4-{[4-(dimethylamino)quinazolin-2-yl]amino}cyclohexyl)methyl]thiourea], the class is listed as 2 (Class 2: The value of percent of control at 10^−7 M was from 40% to 60% or the value of IC50 was from 50 nM to 200 nM.).
As for `CCCCOC(=O)c1ccccc1NC(=O)NC[C@H]1CC[C@@H](Nc2nc(N(C)C)c3ccccc3n2)CC1` [compound 750], the class is reported as 3 (Class 3: The value of percent of control at 10^−7 M was more than 60% or the value of IC50 was more than 200 nM.).
Same read-out and setting: the figure for `Cc1c(Cl)cccc1NC(=S)N[C@H]1CC[C@@H](Nc2nc(N(C)C)c3ccccc3n2)CC1` [compound 371] is 1 (Class 1: The value of percent of control at 10^−7 M was less than 40% or the value of IC50 was less than 50 nM.).
For the compound `COc1ccc(NC(=O)NC[C@H]2CC[C@@H](Nc3nc(N(C)C)c4ccccc4n3)CC2)cc1OC1CCCC1` [compound 762], the class is on record as 3 (Class 3: The value of percent of control at 10^−7 M was more than 60% or the value of IC50 was more than 200 nM.).

The experiment is the same for the next values; noted with them: class by percent of control at 10^-7 M or by IC50; read-out: class.
Take `COc1ccc(NC(=O)N[C@H]2CC[C@@H](Nc3nc(N(C)C)c4ccccc4n3)CC2)c(C)c1` [compound 827, N-(cis-4-{[4-(dimethylamino)quinazolin-2-yl]amino}cyclohexyl)-N′-(4-methoxy-2-methylphenyl)urea]: the IC50 is less than 0.05 µM.
Same read-out and setting: the figure for `COc1cc(NC(=O)N[C@H]2CC[C@@H](Nc3nc(N(C)C)c4ccccc4n3)CC2)cc(OC)c1OC` [compound 121, N-(cis-4-{[4-(dimethylamino)quinazolin-2-yl]amino}cyclohexyl)-N′-(3,4,5-trimethoxyphenyl)urea] is less than 0.05 µM; for `Cc1ccc(NC(=O)N[C@H]2CC[C@@H](Nc3nc(N(C)C)c4ccccc4n3)CC2)cc1Cl` [compound 64] it is more than 0.2 µM; for `COc1ccc(C)cc1NC(=O)N[C@H]1CC[C@@H](Nc2nc(N(C)C)c3ccccc3n2)CC1` [compound 105, N-(cis-4-{[4-(dimethylamino)quinazolin-2-yl]amino}cyclohexyl)-N′-(2-methoxy-5-methylphenyl)urea] it is 0.05 to 0.2 µM.
Still for that read-out and setting: in the case of `CN(C)c1nc(N[C@H]2CC[C@@H](NC(=O)Oc3ccc(Br)cc3)CC2)nc2ccccc12` [compound 850] it was more than 0.2 µM; in that of `CN(C)c1nc(N[C@H]2CC[C@@H](NC(=S)Nc3c(Cl)cccc3Cl)CC2)nc2ccccc12` [compound 171], more than 0.2 µM; in that of `CCc1cccc(C)c1NC(=O)N[C@H]1CC[C@@H](Nc2nc(N(C)C)c3ccccc3n2)CC1` [compound 33, N-(cis-4-{[4-(dimethylamino)quinazolin-2-yl]amino}cyclohexyl)-N′-(2-ethyl-6-methylphenyl)urea], less than 0.05 µM.

The same experiment, now with this note: class by percent of control at 10^−7 M or by IC50; read-out: class.
Take `Cc1ccc(C(=O)N[C@H]2CC[C@@H](Nc3nc(N(C)C)c4cc(F)c(F)cc4n3)CC2)cc1` [Example 1206, N-(cis-4-{[4-(dimethylamino)-6,7-difluoroquinazolin-2-yl]amino}cyclohexyl)-4-methylbenzamide]: the IC50 was less than 0.05 µM.
On the same count and under the same terms, in the case of `C[C@@H](NC(=O)[C@H]1CC[C@@H](Nc2nc(N(C)C)c3ccccc3n2)CC1)c1ccccc1` [Example 1189, cis-4-{[4-(dimethylamino)quinazolin-2-yl]amino}-N-[(1R)-1-phenylethyl]cyclohexanecarboxamide] it was less than 0.05 µM; in that of `CN(C)c1nc(N[C@H]2CC[C@@H](C(=O)NCc3ccc(Br)cc3)CC2)nc2cc(F)c(F)cc12` [Example 1002, cis-N-(4-bromobenzyl)-4-{[4-(dimethylamino)-6,7-difluoroquinazolin-2-yl]amino}cyclohexanecarboxamide], less than 0.05 µM; in that of `Cc1ccccc1CNC(=O)[C@H]1CC[C@@H](Nc2nc(N(C)C)c3ccccc3n2)CC1` [Example 1166, cis-4-{[4-(dimethylamino)quinazolin-2-yl]amino}-N-(2-methylbenzyl)cyclohexanecarboxamide], less than 0.05 µM.
Still for that read-out and setting: the figure for `COc1cccc(Oc2ccc(C(=O)N[C@H]3CC[C@@H](Nc4nc(N(C)C)c5ccccc5n4)CC3)cn2)c1` [Example 1056, N-(cis-4-{[4-(dimethylamino)quinazolin-2-yl]amino}cyclohexyl)-6-(3-methoxyphenoxy)nicotinamide] is less than 0.05 µM; for `CN(C)c1nc(N[C@H]2CC[C@@H](NC(=O)CNc3ccc(F)cc3)CC2)nc2ccccc12` [Example 1091, N-(cis-4-{[4-(dimethylamino)quinazolin-2-yl]amino}cyclohexyl)-N2-(4-fluorophenyl)glycinamide] it is less than 0.05 µM.
On to `CN(C)c1nc(N[C@H]2CC[C@@H](C(=O)NCc3ccc(Br)cc3F)CC2)nc2ccccc12` [Example 1162, cis-N-(4-bromo-2-fluorobenzyl)-4-{[4-(dimethylamino)quinazolin-2-yl]amino}cyclohexanecarboxamide], for which the IC50 is less than 0.05 µM.
